Assay results published in US9951089B2, “Methods of treating a fatty acid amide hydrolase-mediated condition” (INFINITY PHARMACEUTICALS, INC., priority 2010, dated 2018).

How the values were obtained:
[1] = Solubility of drug product in water; assay type: physicochemical; settings: crystalline solid
Excerpt: (§1) In the clinic, protocol-specified portions of drug product are suspended in a vehicle consisting of commercially available medium viscosity USP carboxymethylcellulose sodium (CMC) in Sterile Water for Injection (SWFI). CMC is a chemically stable compound that is commonly used in oral pharmaceutical formulations and appears on the FDA list of substances that are Generally Recognized As Safe (GRAS).

[2] = Compatibility study: stability of drug product suspended in CMC vehicle; assay type: physicochemical; settings: suspension in carboxymethylcellulose sodium (CMC) vehicle
Excerpt: as §1

[3] = Solubility plot in 2-MeTHF:n-heptane; assay type: physicochemical; settings: 2-MeTHF:n-heptane solvent mixture, organic solvent or mixture; mixture of 2-MeTHF:n-heptane, at least a 2:1 ratio
Excerpt: In order to further simplify the reaction workup transition, water-miscible THF was replaced with water immiscible 2-MeTHF as the reaction co-solvent with n-heptane, thus eliminating the need for MTBE in the workup. […] This afforded a relatively wide solubility range for both the reaction and the workup while still keeping the solvent volumes at reasonable levels for the telescoped steps.

[4] = Mechanical stressing of Form A, XRPD read-out; assay type: physicochemical
Description: (§2) XRPD patterns were collected with an Inel XRG-3000 diffractometer. An incident beam of Cu Kα radiation was produced using a fine-focus tube and a parabolically graded multilayer mirror. Prior to the analysis, a silicon standard (NIST SRM 640c) was analyzed to verify the Si 111 peak position. A specimen of the sample was packed into a thin-walled glass capillary, and a beam-stop was used to minimize the background from air. Diffraction patterns were collected in transmission geometry using Windif v. 6.6 software and a curved position-sensitive Equinox detector with a 2θ range of 120°.
(§3) XRPD patterns were collected with a PANALYTICAL® X'Pert PRO MPD diffractometer using an incident beam of Cu radiation produced using an Optix long, fine-focus source. An elliptically graded multilayer mirror was used to focus Cu Kα X-rays through the specimen and onto the detector. Prior to the analysis, a silicon specimen (NIST SRM 640c) was analyzed to verify the Si 111 peak position. A specimen of the sample was sandwiched between 3 μm-thick films and analyzed in transmission geometry. A beam-stop and short antiscatter extension were used to minimize the background generated by air. Soller slits for the incident and diffracted beams were used to minimize broadening from axial divergence. Diffraction patterns were collected using a scanning position-sensitive detector (X'CELERATOR® located 240 mm from the specimen and Data Collector software v. 2.2b.
(§4) Form A crystal form of Compound 1 was subjected to (1) mechanical stressing experiments and (2) relative humidity stressing experiments, where the material was subjected to different levels of relative humidity (R.H.) and temperature.

[5] = Relative humidity stressing of Form A, XRPD read-out; assay type: physicochemical; settings: 7 days
Description: as §2, §3, §4

[6] = Material B/Form A relative humidity stressing (conversion study); assay type: physicochemical; settings: approximately 75% R.H. and 41° C.

Q: What does the source list for `OB(O)c1ccc(-c2cccc(F)c2)cc1F` [Compound 1, 3,3′-difluorobiphenyl-4-ylboronic acid]?
A: solubility in water [1]: sparingly soluble; stability of the drug product suspended in CMC [2]: at least 48 hours; solubility [3]: > 100 mg/mL

Q: For `Fc1cccc(-c2ccc(B3OB(c4ccc(-c5cccc(F)c5)cc4F)OB(c4ccc(-c5cccc(F)c5)cc4F)O3)c(F)c2)c1` [Compound 2, 2,4,6-tris(3,3′-difluorobiphenyl-4-yl)-1,3,5,2,4,6-trioxatriborinane], which melting point is on record?
A: Its melting point is 238 to 241 °C.

Q: Which “XRPD Result after mechanical stressing” value ([4]; compress, 10,000 lb, 5 min., no solvent) does the source give for `OB(O)c1ccc(-c2cccc(F)c2)cc1F` [Form A, 3,3′-difluorobiphenyl-4-ylboronic acid] here?
A: Its value is “Form A, low”.

Q: What about the “XRPD Result after mechanical stressing” value ([4]; mill, 30 Hz, 20 min., ACN) of the same compound?
A: The value was “Form A”.

Q: And the “XRPD Result after mechanical stressing” value ([4]; mill, 30 Hz, 20 min., MEK)?
A: Its value is “Form A”.

Q: And the “XRPD Result after mechanical stressing” value ([4]; mill, 30 Hz, 20 min., THF)?
A: Its value is “Form A”.

Q: And the “XRPD Result after mechanical stressing” value ([4]; mill, 30 Hz, 20 min., no solvent)?
A: Its value is “Form A, low”.

Q: And the “stability to humidity stressing” value ([5]; 75% R.H., about 40° C.)?
A: Its value is “stable”.

Q: And the “stability to humidity stressing” value ([5]; 75% R.H., room temperature)?
A: Its value is “stable”.

Q: What about the “XRPD Result after relative humidity stressing” value ([5]; 75% RH, 40° C.) of the same compound?
A: Its value is “Form A”.

Q: And the “XRPD Result after relative humidity stressing” value ([5]; 75% RH, RT)?
A: Its value is “Form A”.

Q: And the “stability to humidity stressing” value ([5]; 97% R.H., room temperature)?
A: Its value is “stable”.

Q: And the “XRPD Result after relative humidity stressing” value ([5]; 97% RH, RT)?
A: The value was “Form A”.

Q: Which “crystal form conversion under humidity stressing” value ([6]; after 4, 7, and 14 days) does the source give for `OB(O)c1ccc(-c2cccc(F)c2)cc1F` [Material B, 3,3′-difluorobiphenyl-4-ylboronic acid] here?
A: Its value is “The same mixture”.

Q: And the “crystal form conversion under humidity stressing” value ([6]; as early as 1 day)?
A: Its value is “convert to a mixture of Material B and Form A”.
